Measurements from PMC10122656, “Siglec-6 mediates the uptake of extracellular vesicles through a noncanonical glycolipid binding pocket” (Nature Communications, 2023).
Where “and” joins values, the source holds several entries; their conditions need not be identical. Identical values can stand only once.

Assays:
[1] = system: memory B-cells; assay: Liposome binding to peripheral blood memory B-cells by flow cytometry; format: cell-based, human
Procedure: 200,000 cells/well were plated into a 96-well U-bottom microplate and centrifuged at 300 × g for 5 min. The cells were then resuspended in 50 µL of 50 µM liposome/50 µg/mL (protein concentration) of EV solution in DMEM F12 5% FBS and incubated at 37 °C for 30 min. Excess liposomes were then removed via centrifuged at 300 × g for 5 min followed by washing the cells with FACS solution. The cells were then resuspended in (1:250 V/V) anti-Siglec-flow buffer (1% V/V FBS, 500 µM, EDTA Hank’s Balanced Salt Solution pH 7.4), solution and left to rest on ice for 30 min. The cells were then centrifuged again at 300 × g for 5 min and the cells were resuspended in FACS buffer solution and were then ready for analysis by flow cytometry. Information regarding antibody clone, catalog number supplier, label isotype, and dilution can be found in Supplementary Table 6. The Siglec-positive cells were gated on for liposome-binding analysis (Supplementary Fig. 1b).
Flow cytometry measurements were collected on a 5-laser Fortessa X-20 (BD Bioscience). All the resulting data were analyzed using FlowJo (10.5.3) software (BD Biosciences).

[2] = target: T1, CHO cells expressing Siglec-1 (Homo sapiens, UniProt Q9BZZ2); assay: Liquid glycan array (LiGA) binding read out by next-generation sequencing; format: cell-based; settings: for LiGA signal at 0.034: Figure S9, 0.034; for LiGA signal at 0.041: Figure S9, 0.041; for LiGA signal at 0.048: Figure S9, first column 0.048; for LiGA: ganglioside oligosaccharide on phage binding to Siglec-1 CHO cells (Fig. 1e): replicates; for density at which LiGA binding to Siglec-1 CHO cells was maximal: oligosaccharide on phage; for LiGA signal at 0.019: Figure S9, 0.019; for LiGA signal at 0.06: Figure S9, 0.06
T1 construct: expressed in transfected cells
Procedure: (§1) Solution of five SDB phage clones (10^12−10^13 PFU/mL in PBS) was combined in equal amounts (50 µL) to create a multiplexed silent barcode (MSDB). Twenty-four such MSDB were created and combined DBCO-NHS (50 mM in DMF) to afford a final concentration ranging from 0.25 to 2 mM. The reaction was incubated for 45 min at room temperature. The conjugates were purified by Zeba™ Spin Desalting column (7 kDa MWCO, 0.5 mL, Thermo Fisher) and pVIII modification rate was confirmed by MAL/DI using a previously reported protocol. Typically, 1 mM DBCO-NHS yields 25% of pVIII modification after 45 min incubation. Six MSDB were combined and a solution of azido-glycans (10 mM stock in Nuclease Free H2O) was added to the solution to afford a 2 mM concentration of glycan-azide and the solutions were further incubated overnight at 4 °C. The glycan conjugation was confirmed using MALDI-TOF. The conjugates were purified by Zeba column and supplemented with glycerol and stored as 50% glycerol stock at −20 °C. LiGA mixture was prepared by combining these solutions.
as §1, with “The solution of five” for “Solution of five”, “Fisher) and the pVIII modification” for “Fisher) and pVIII modification”
Confluent CHO cells expressing Siglec-1 or UT CHO cells were detached using PBS plus 5 mM EDTA and washed with PBS (2 × 5 mL). Suspension of at 2 × 10^6 cells in HEPES-1, % BSA (20 mM HEPES, 150 mM NaCl, 2 mM CaCl2, pH 7.4, 1% BSA) in a round bottom 3 mL tube (Corning, #352054) was combined with LiGA (10^8 PFU) and incubated for 1 h at 4 °C. The cells were then washed with HEPES-0.1% BSA in (2 × 3 mL) and HEPES buffer (1 × 1 mL). The washed cell pellet was resuspended in 30 µL nuclease-free H2O. The solution was incubated at 90 °C for 15 min, centrifuged at 21,000 × g for 10 min, and 25 µL of the supernatant was used for PCR and sequencing.

[3] = Ganglioside content quantification in liposomes by ESI-MS; format: physicochemical; settings: peer review file; Supplementary Table 1
Procedure: The average ganglioside content in a given liposome sample was measured by electrospray ionization mass spectrometry (ESI-MS) using an internal standard (IS)[70]. Briefly, the liposome sample was first disassembled in a methanol solution of 0.15% formic acid, and a known amount of IS was added. The solution was then analyzed by ESI-MS. The total ion abundance (Ab) ratio of the ganglioside (GSL) to the IS measured by ESI-MS is related to the corresponding solution concentration ratio by Eq. (1):1 R=AbGSL/AbIS=GSL/IS and thus the ganglioside concentration can be obtained from linear regression. The corrected ganglioside percentage (GSL%corr) and the ganglioside incorporation in the liposome can be found from Eqs. (2) and (3), respectively, where [GSL]nominal is the nominal concentration of the ganglioside used for liposome preparation:2 GSL%corr=[GSL]/[TotalLipid] 3 Incorporation=[GSL]/GSLnominal
The corresponding deuterium labeled gangliosides, N-ω-CD3-octadecanoyl monosialoganglioside GM2 (GM2-d3), and N-ω-CD3-octadecanoyl monosialoganglioside GM3 (GM3-d3), purchased form Matreya LLC (State College, PA), were used as IS for GM2 and GM3 content quantification, respectively. All these measurements were carried out in negative ion mode using a Q Exactive Hybrid Quadrupole-Orbitrap mass spectrometer coupled with the Nanospray Flex Ion Source (Thermo Fisher Scientific, Bremen, Germany). […]

[4] = oligosaccharide density 0.008 Ligand/nm2
[5] = oligosaccharide density 0.019 Ligand/nm2
[6] = oligosaccharide density 0.034 Ligand/nm2
[7] = oligosaccharide density 0.041 Ligand/nm2
[8] = oligosaccharide density 0.048 Ligand/nm2
[9] = oligosaccharide density 0.06 Ligand/nm2

T1 sequence (Q9BZZ2 20-1709): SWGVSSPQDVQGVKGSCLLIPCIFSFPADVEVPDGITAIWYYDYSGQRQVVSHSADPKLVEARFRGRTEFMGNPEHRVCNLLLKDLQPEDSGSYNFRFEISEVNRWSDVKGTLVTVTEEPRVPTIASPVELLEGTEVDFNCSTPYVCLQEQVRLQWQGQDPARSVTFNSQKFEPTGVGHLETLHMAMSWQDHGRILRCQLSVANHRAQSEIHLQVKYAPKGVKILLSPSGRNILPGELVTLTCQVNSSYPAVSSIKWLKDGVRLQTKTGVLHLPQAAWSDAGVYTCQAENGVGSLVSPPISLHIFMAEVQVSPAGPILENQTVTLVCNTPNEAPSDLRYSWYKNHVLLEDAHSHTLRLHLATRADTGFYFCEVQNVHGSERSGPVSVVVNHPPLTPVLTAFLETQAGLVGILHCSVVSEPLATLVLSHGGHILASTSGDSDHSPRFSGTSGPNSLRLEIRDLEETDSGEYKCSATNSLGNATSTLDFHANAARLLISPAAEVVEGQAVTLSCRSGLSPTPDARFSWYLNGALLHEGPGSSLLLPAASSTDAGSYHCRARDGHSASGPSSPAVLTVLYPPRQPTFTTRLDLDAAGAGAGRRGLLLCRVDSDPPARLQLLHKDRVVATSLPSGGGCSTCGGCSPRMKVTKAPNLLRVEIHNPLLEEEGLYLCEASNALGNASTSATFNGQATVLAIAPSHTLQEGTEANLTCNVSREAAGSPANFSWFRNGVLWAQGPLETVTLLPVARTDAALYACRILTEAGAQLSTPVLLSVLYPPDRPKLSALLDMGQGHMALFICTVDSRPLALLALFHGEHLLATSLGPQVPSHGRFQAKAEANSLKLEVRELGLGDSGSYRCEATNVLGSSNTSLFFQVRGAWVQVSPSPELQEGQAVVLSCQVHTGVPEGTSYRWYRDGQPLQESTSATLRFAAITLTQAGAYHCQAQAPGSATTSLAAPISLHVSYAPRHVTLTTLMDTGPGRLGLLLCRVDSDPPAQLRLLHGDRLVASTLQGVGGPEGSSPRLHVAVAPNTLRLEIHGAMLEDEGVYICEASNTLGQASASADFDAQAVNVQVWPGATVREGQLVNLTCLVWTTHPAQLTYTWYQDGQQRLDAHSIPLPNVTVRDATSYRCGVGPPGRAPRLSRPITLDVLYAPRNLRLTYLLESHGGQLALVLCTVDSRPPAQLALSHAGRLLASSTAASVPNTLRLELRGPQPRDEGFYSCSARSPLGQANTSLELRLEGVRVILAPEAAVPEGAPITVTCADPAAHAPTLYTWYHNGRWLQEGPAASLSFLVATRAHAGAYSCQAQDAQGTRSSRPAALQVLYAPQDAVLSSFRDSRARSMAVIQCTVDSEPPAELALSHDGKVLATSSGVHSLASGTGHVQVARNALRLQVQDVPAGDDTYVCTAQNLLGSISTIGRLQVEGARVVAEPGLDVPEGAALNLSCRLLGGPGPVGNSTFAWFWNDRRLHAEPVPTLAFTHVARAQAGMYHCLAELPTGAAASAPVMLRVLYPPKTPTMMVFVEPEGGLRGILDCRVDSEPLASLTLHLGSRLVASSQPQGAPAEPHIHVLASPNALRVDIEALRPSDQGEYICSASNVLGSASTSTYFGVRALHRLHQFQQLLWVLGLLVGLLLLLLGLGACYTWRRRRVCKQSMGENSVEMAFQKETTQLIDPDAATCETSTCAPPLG

Row | Compound | liposome binding, fluorescence signal (replicates) ([1]; sheet Figure S29, 5% GM3-DAG liposomes, cells not given) | 5 nGLL binding to memory B-cells after pre-treatment with anti-Siglec-6 antibody [1] | 5 nGLL binding to memory B-cells compared to naïve B-cells ([1]; four healthy donors) | LiGA signal at 0.034 [2] | LiGA signal at 0.041 [2] | LiGA signal at 0.048 [2] | LiGA signal at 0.066 ([2]; Figure S9, first column 0.066) | LiGA: ganglioside oligosaccharide on phage binding to Siglec-1 CHO cells (Fig. 1e) [2, 4] | LiGA: ganglioside oligosaccharide on phage binding to Siglec-1 CHO cells (Fig. 1e) [2, 5] | LiGA: ganglioside oligosaccharide on phage binding to Siglec-1 CHO cells (Fig. 1e) [2, 6] | LiGA: ganglioside oligosaccharide on phage binding to Siglec-1 CHO cells (Fig. 1e) [2, 7] | LiGA: ganglioside oligosaccharide on phage binding to Siglec-1 CHO cells (Fig. 1e) [2, 8] | LiGA: ganglioside oligosaccharide on phage binding to Siglec-1 CHO cells (Fig. 1e) ([2]; oligosaccharide density 0.066 Ligand/nm2) | density at which LiGA binding to Siglec-1 CHO cells was maximal [2] | LiGA signal at 0.019 [2] | LiGA signal at 0.06 [2] | LiGA: ganglioside oligosaccharide on phage binding to Siglec-1 CHO cells (Fig. 1e) [2, 9] | incorporation of ganglioside into liposomes [3] [%]
1 | CCCCCCCCCCCCCCCCOCC(COCCCCCCCCCCCCCCCC)OCc1cn(CCO[C@@H]2O[C@H](CO)[C@@H](O[C@@H]3O[C@H](CO)[C@H](O)[C@H](O[C@]4(C(=O)O)C[C@H](O)[C@@H](NC(C)=O)[C@H]([C@H](O)[C@H](O)CO)O4)[C@H]3O)[C@H](O)[C@H]2O)nn1 [GM3-DAG] | 361 and 385 and 363 and 344 | – | – | – | – | – | – | – | – | – | – | – | – | – | – | – | – | –
2 | CCCCCCCCCCCCCCCCOCC(COCCCCCCCCCCCCCCCC)OCc1cn(CCO[C@@H]2O[C@H](CO)[C@@H](O[C@@H]3O[C@H](CO)[C@H](O)[C@H](O[C@]4(C(=O)O)C[C@H](O)[C@@H](NC(C)=O)[C@H]([C@H](O)[C@H](O)CO)O4)[C@H]3O)[C@H](O)[C@H]2O)nn1 [nGL 5] | – | Blocking of 5 nGLLs to human memory B-cells was achieved | significant binding | – | – | – | – | – | – | – | – | – | – | – | – | – | – | –
3 | GD1a | – | – | – | 3.442 and 2.502 and 3.222 and 3.062 and 2.777 | 1.814 and 2.04 and 1.9 and 2.274 and 1.639 | 1.684 and 1.501 and 1.621 and 1.606 | 2.309 and 1.395 and 2.352 and 2.266 | 0.05 (4×) and 0.04 | 0.2 and 0.13 and 0.03 and 0.15 | 0.41 and 0.39 and 0.36 and 0.44 and 0.32 | 0.24 and 0.29 and 0.21 and 0.23 and 0.26 | 0.19 and 0.21 (2×) and 0.22 and 0 | 0.18 and 0.3 (2×) and 0.29 | ~ 26 nm^2/ligand | – | – | – | –
4 | GM1 | – | – | – | 0.857 and 0.909 and 0.746 and 0.756 and 0.912 | – | 0.51 and 0.478 and 0.553 and 0.673 | – | 0.12 and 0.09 (2×) and 0.04 | 0.08 (2×) and 0.1 (2×) | 0.11 and 0.12 (2×) and 0.1 (2×) | 0.07 (3×) and 0.08 | 0.07 (2×) and 0.06 and 0.09 | – | – | 0.643 and 0.783 and 0.76 and 0.6 | 1.503 and 0.848 and 1.103 and 0.902 and 1.094 | 0.19 and 0.11 and 0.14 (2×) and 0.12 | –
5 | GM2 | – | – | – | – | – | 6.111 and 6.403 and 6.572 and 7.724 and 12.213 | – | 0.1 (2×) and 0.05 and 0.07 | 0.12 (3×) and 0.13 and 0.23 | 0.71 and 1.24 and 1.08 and 1.35 and 0.62 | – | 0.82 and 0.84 and 0.99 and 0.78 | – | ~ 26 nm^2/ligand | 0.917 and 0.919 and 0.922 and 1.035 and 1.785 | 5.095 and 7.961 and 4.56 and 5.475 | 1.02 and 0.58 and 0.7 and 0.65 | 98
6 | GM3 | – | – | – | 0.358 and 0.619 and 0.601 and 0.534 | 0.827 and 1.082 and 1.01 and 1.1 and 0.616 | 0.881 and 0.783 and 0.773 and 1.152 | – | 0.19 and 0.09 and 0.07 and 0.1 and 0.08 | 0.12 and 0.11 and 0.1 and 0.19 and 0.05 | 0.05 and 0.08 (2×) and 0.07 | 0.11 and 0.14 (2×) and 0.13 and 0.08 | 0.11 and 0.1 (2×) and 0.15 | – | – | – | – | 0.13 and 0.15 and 0.07 and 0.06 | 96
